Measurements from US20040018623A1, “Medium for preparing dedifferentiated cells” (priority 1999, published 2004).

Assays:
isolated canine islets = assay: Islet-cystic (duct epithelial) transformation / transdifferentiation of isolated islets; format: cell-based; conditions: for cystic transformation, % of control: at 72 hours, islets pre-incubated prior to embedding in collagen, control = DMEM/F12-CT group; for ductal transformation in suspension with soluble matrix protein: islets in suspension in DMEM/F12-CT supplemented with soluble protein (50 μg/ml)
[1] = target: integrins (on isolated canine islet cells) (dog); assay: cell-based or functional assay

| Molecule | cystic transformation, % of control (isolated canine islets) | ductal transformation in suspension with soluble matrix protein (isolated canine islets) | other results |
| --- | --- | --- | --- |
| laminin | 50 % of control | failed to undergo ductal transformation |  |
| fibronectin | 50 % of control | failed to undergo ductal transformation |  |
| GRGDSP [reference compound] | 57 % of control |  | islet cell transdifferentiation after prior incubation of freshly isolated islets with peptide (isolated canine islets; prior incubation of islets with the peptide): partially blocked |
| GRGESP [control peptide, reference compound] |  |  | influence on the transformation process (isolated canine islets; islets pre-incubated with peptide (400 μg/ml) prior to embedding in collagen): little influence |
| GRGDSP [RGD-motif containing GRGDSP peptide] |  |  | islet-cystic transformation at 72 hours, percent of the control DMEM/F12-CT group [1]: 57 % of control |
